Here are results for 36 compounds from a melting point compilation (Tetko et al.; mined from patent text by program, amines drawn as free bases though some values may be those of a salt).

With `Cn1cc(-c2ccccc2)c(=O)c(-c2cccc(S(=O)(=O)c3ccccc3)c2)c1`, the melting point was 65 to 72 °C. Then `N#Cc1ccc(CCC(N)=O)cc1`, with 220 °C; and `COC(=O)CCc1ccc(N2C(=O)CN(c3ccc(C#N)cc3)C2=O)cc1`, with 188 to 190 °C; and `COC(=O)C1CC(=O)N(c2cc(C(F)(F)F)cc(C(F)(F)F)c2)C1` (stereo unspecified), with 68 to 70 °C. As for `O=c1cc(-c2ccccc2F)oc2ccccc12`, the melting point is 98 to 100 °C. Then `CCCCCCCCCCCCCCc1c[nH]c(C(=O)O)c1`, with 148 to 150 °C; and `CC(C)(C)OC(=O)Nc1cc(N2CCC3(CC2)OCCO3)c(I)cc1[N+](=O)[O-]`, with 132 to 134 °C. Then `O=C(NCC(C(=O)O)C(F)(F)F)Nc1ccccc1` (stereo unspecified), with 180 to 181 °C. Then `CCC1C2C3Cc4ccc(OC)c5c4C2(CCN3C)C(O5)C(O)C1(C)C` (stereo unspecified), with 104 to 108 °C; and `Cc1cc2nc(Cl)c(Cl)nc2c([N+](=O)[O-])c1C`, with 133 to 134 °C; and `Cc1oc(-c2ccc(C(F)(F)F)cc2)nc1CO`, with 98 to 99 °C.

`CC(C)=NOCc1nc2c(N)nc3ccccc3c2n1CC(C)C` yielded a melting point of 194 to 195 °C. Then `FC(F)(F)Oc1ccc(-c2ccc(CCl)cn2)cc1`, with 34 to 36 °C. Then `N#CNC(=NC1CCN(Cc2ccccc2)CC1)NC1Cc2ccccc2C1`, with 138 to 140 °C. The compound `COc1c(F)cc2c(c1F)CC(n1cc[nH]c1=S)CC2` (stereo unspecified) registered a melting point of 228 to 230 °C.

For `Nc1ccc(Oc2ccccc2C(=O)Oc2ccccc2)cc1`, the melting point was determined as 102 °C. To `O=C1CN(c2cccc(OCc3ccc(F)cc3)c2)NC(=O)N1` belongs 73 to 75 °C; to `CN(C)C(=O)c1csc(N(C)CC#CI)n1`, 148 to 150 °C. Then `CC(C)(C)OC(=O)N1CC(CCl)c2c1ccc1cc(C#N)ccc21` (stereo unspecified), with 171 to 172 °C; and `CC(C)C1CC(=O)C(=C2CCCN2)C(=O)C1` (stereo unspecified), with 143 to 145 °C. Then `CCCc1nn(C)c2c(=O)n(CCNc3ccc(OC(C)(C)C(=O)O)cc3)c(CC)nc12`, with 136 to 138 °C. `O=[N+]([O-])c1cnc2ccc(Br)cn12` yielded a melting point of 160 to 161 °C.

In the case of `c1cnc(NCCc2c[nH]cn2)cn1`, the melting point was 200 to 202 °C. Then `CN1CCN(S(=O)(=O)c2cccc(-c3cc(-c4nc(-c5ccc(C(F)(F)F)cc5)cc(C(F)(F)F)n4)ccn3)c2)CC1`, with 205 °C; and `O=C1OCCN1CCN1C(=O)C2(COc3cc4c(cc32)CCO4)c2ccccc21` (stereo unspecified), with 185 to 186 °C. To `CC(=O)S[C@@H](CC1CCCCC1)C(=O)O` belongs 159 to 161 °C; to `O=C(Nc1ccc(CN2CCCCC2)cc1)C1=Cc2cc(-c3ccccc3)ccc2CC1`, 163 to 164 °C; to `O=C(O)COc1nc(F)c(Cl)cc1Cl`, 140 to 144 °C.

Compound `COc1ccccc1-n1nnc2cc(F)c(NC(C)=O)cc21` gave a melting point of 174 to 175 °C. Then `Cc1noc([C@@H](Cc2ccccc2)NC(=O)[C@@H](Cc2ccc3ccccc3c2)NC(=O)OC(C)(C)C)n1`, with 148 to 150 °C.

For `Cn1cc(C2=C(c3cn(C)c4c([N+](=O)[O-])cccc34)C(=O)NC2=O)c2ccc(F)cc21`, the melting point is 259 to 261 °C. To `O=C(O)C(=O)Nc1ccc2c(=O)n3c(nc2c1)C(=Cc1ccccc1)CC3` belongs 198 to 200 °C; to `Cc1ccc(OC(C)C(=O)c2cc(C(C)(C)C)c(O)c(C(C)(C)C)c2)c(-n2nc3ccccc3n2)c1` (stereo unspecified), 161 °C; to `O=C(NCc1ccc(Cl)cc1)c1cnc2ccc(I)cc2c1O`, 297 to 299 °C.

For the compound `CCCCCC(C#CC1C(O)CC(=O)C1CCCCCCC(=O)OC)OC1CCCCO1` (mixture of isomers), the melting point lay in the range of 84 to 85 °C. Then `NC(=O)Cn1c(=O)c(=O)[nH]c2ccccc21`, with > 300 °C.

The melting point is the temperature, or range, at which the solid turns liquid.
